Like-named read-outs stand apart in the source and are kept apart here.
Legend:
[1] = system: Staphylococcus aureus subsp. aureus str. strain Newman; assay: Preliminary screening assay of inhibition of staphyloxanthin synthesis; type: cell-based
Description: Strains used for assay: freshly activated wild-type Staphylococcus aureus subsp. aureus str. strain Newman and its homologous mutant strain having crtN insertion (without staphyloxanthin synthesis).
Medium for assay: Tryptone Soy broth (TSB), a product from Oxid Corporation, the United Kingdom, which was formulated with distilled water, sterilized at 121° C. for 15 min for later use.
Method of Preliminary Screening Assay:
(1) Preparation of compound: the compound of the invention was dissolved in dimethyl sulfoxide (DMSO) to prepare a stock solution having a concentration of 10 mM; 400 μL of DMSO was added to 100 μL of the stock solution to get a dilution with a concentration of 2 mM; 250 μL (2 mM) of the dilution was taken after mixing, and an equal amount of DMSO was added thereto for 2-fold dilution to get a solution with a concentration of […] for later use.
(2) Culture of the strain: single colonies of strain Newman were picked from TSA plates into a test tube containing 4 mL of sterile TSB medium, and cultured at 37° C. and 250 rpm for 12 h for later use.

[2] = system: S. aureus strain Newman; assay: IC50 determination of inhibition of staphyloxanthin synthesis; type: cell-based; conditions: Staphylococcus aureus
Description: Selection of compound concentrations: based on the preliminary screening results, the ability of each compound to inhibit staphyloxanthin synthesis was determined. […] According to the assay results, 10 different concentration gradients were designed for each compound, such that the ability to inhibit staphyloxanthin synthesis comprised substantially from 0% to 100%.
Culture of the strains: single colonies of strain Newman and crtN mutant strain were picked from TSA plates, added into test tubes containing 4 mL of sterile TSB medium, and cultured at 37° C. and 250 rpm for 12 h for later use.
The relative level of staphyloxanthin synthesis at each concentration of the compound of the invention=A450 (sample)/A450 (negative control)*100%. With the molar concentration of the compound as the abscissa and the relative level of staphyloxanthin synthesis as the ordinate, a curve fitting of inhibitor concentration-inhibition rate (log(inhibitor) vs response) was performed in Graphpad prism 5.0 software, and the IC50 of the compound for inhibiting staphyloxanthin synthesis was calculated by software based on the fitting results.
S. aureus was selected for IC50 determination with respect to activity of inhibiting staphyloxanthin synthesis. […]

[3] = system: wild-type S. aureus Newman strain; assay: Verification assay using CrtN as a target (HPLC of carotenoid extract); type: cell-based, Staphylococcus aureus; conditions: 100 μM added to wild-type strain Newman, 440 nm
[4] = system: S. aureus; assay: Hydrogen peroxide killing assay; type: cell-based, Staphylococcus aureus; conditions: four strains, 1.5% hydrogen peroxide, 1 h
Description: (§1) Compound IA-25 was used as a representative compound. The main object of the invention was to impair the ability of bacteria to resist immunological killing in vivo by inhibiting staphyloxanthins synthesis.
The calculated survival rate of bacteria after hydrogen peroxide killing=(count of bacteria grown in sample after hydrogen peroxide killing×dilution factor)/(count of bacteria grown in control group×dilution factor)×100%.

[5] = system: S. aureus; assay: Human whole blood killing assay; type: cell-based, Staphylococcus aureus; conditions: four strains, fresh human blood, 6 h
Description: as §1
The calculated survival rate of bacteria after blood killing=(count of bacteria grown in sample after blood killing×dilution factor)/(count of bacteria grown in control group×dilution factor)×100%.

[6] = system: Tinea barbae; assay: In vitro antifungal assay (micro liquid-based dilution); type: cell-based; conditions: read-out: Antifungal Activities, MIC80
[7] = system: LRSA202; assay: In vivo pharmacodynamics evaluation in infected mice; conditions: BALB/c mice infected retroorbitally with LRSA202
Description: (§2) Compound IA-25 was used as a representative compound. The laboratory SPF-grade female BALB/c mice were purchased from Shanghai Jiesijie Laboratory Animal Co., Ltd. and bred under aseptic condition to 6-8 weeks old. The S. aureus strains which had been cultured overnight were transferred to fresh and sterile TSB medium and cultured at 37° C. and 250 rpm for 3 h to exponential growth phase; the culture was washed twice with PBS buffer, and then suspended in PBS for later use. In the mouse infection assay, the mice were divided into several groups, each containing 10 mice.

[8] = system: LRSA56; assay: as above; conditions: BALB/c mice infected retroorbitally with LRSA56
Description: as §2

[9] = system: Mu50; assay: as above; conditions: BALB/c mice infected retroorbitally with Mu50
Description: as §2

[10] = system: NF65Y; assay: as above; conditions: BALB/c mice infected retroorbitally with NF65Y
Description: as §2

[11] = system: NRS108; assay: as above; conditions: BALB/c mice infected retroorbitally with NRS108
Description: as §2

[12] = system: NRS271; assay: as above; conditions: BALB/c mice infected retroorbitally with NRS271
Description: as §2

[13] = system: strain Newman; assay: as above; conditions: BALB/c mice infected retroorbitally with Newman
Description: as §2

[14] = target: CYP enzyme subtype 1A2 (Homo sapiens, UniProt P05177); assay: Inhibition assay on hepatic CYP450 enzyme; type: in vitro ADME; conditions: CYP 1A2; read-out: Half inhibitory concentration (IC50)
[15] = target: CYP enzyme subtype 2C9 (Homo sapiens, UniProt P11712); assay: Inhibition assay on hepatic CYP450 enzyme; type: in vitro ADME; conditions: CYP 2C9; read-out: Half inhibitory concentration (IC50)
[16] = target: CYP enzyme subtype 2C19 (Homo sapiens, UniProt P33261); assay: Inhibition assay on hepatic CYP450 enzyme; type: in vitro ADME; conditions: CYP 2C19; read-out: Half inhibitory concentration (IC50)
[17] = target: CYP enzyme subtype 2D6 (Homo sapiens, UniProt P10635); assay: Inhibition assay on hepatic CYP450 enzyme; type: in vitro ADME; conditions: CYP 2D6; read-out: Half inhibitory concentration (IC50)
[18] = target: CYP enzyme subtype 3A4M (Homo sapiens, UniProt P08684); assay: Inhibition assay on hepatic CYP450 enzyme; type: in vitro ADME; conditions: CYP 3A4M; read-out: Half inhibitory concentration (IC50)
[19] = target: CYP enzyme subtype 3A4T (Homo sapiens, UniProt P08684); assay: Inhibition assay on hepatic CYP450 enzyme; type: in vitro ADME; conditions: CYP 3A4T; read-out: Half inhibitory concentration (IC50)
[20] = rat, in vivo, 1000 mg/kg
Description: Thirty rats weighing 180-220 g, half male and half female, were picked out and randomly divided into three groups.

Chain of CYP enzyme subtype 1A2 (P05177 whole entry): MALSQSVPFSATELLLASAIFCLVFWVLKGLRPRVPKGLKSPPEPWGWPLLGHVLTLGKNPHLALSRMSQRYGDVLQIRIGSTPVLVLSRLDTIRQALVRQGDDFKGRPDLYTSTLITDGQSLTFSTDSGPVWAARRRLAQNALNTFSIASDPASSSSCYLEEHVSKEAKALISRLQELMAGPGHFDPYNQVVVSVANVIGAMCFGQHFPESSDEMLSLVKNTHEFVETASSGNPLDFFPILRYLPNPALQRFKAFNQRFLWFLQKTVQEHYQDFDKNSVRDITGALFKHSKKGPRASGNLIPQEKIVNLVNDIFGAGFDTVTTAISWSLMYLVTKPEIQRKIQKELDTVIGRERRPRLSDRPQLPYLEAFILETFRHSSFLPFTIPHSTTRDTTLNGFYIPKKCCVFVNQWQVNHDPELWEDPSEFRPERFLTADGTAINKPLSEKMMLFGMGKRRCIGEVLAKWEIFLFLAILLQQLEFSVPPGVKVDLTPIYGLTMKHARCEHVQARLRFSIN
Chain of CYP enzyme subtype 2C19 (P33261 whole entry): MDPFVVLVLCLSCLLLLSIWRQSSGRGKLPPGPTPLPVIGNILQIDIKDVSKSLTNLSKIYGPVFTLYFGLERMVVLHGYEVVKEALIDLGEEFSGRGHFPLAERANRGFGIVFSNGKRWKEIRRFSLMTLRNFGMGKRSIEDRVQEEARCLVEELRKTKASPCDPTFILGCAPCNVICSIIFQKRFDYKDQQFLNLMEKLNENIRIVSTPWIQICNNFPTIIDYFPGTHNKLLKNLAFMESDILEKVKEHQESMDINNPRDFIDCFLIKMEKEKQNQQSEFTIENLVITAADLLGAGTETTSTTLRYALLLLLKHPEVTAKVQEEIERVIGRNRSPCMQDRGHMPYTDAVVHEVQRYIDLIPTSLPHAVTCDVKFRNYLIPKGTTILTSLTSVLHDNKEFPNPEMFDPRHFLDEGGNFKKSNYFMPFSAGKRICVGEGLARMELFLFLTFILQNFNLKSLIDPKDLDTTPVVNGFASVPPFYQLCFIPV
Chain of CYP enzyme subtype 3A4T (P08684 whole entry): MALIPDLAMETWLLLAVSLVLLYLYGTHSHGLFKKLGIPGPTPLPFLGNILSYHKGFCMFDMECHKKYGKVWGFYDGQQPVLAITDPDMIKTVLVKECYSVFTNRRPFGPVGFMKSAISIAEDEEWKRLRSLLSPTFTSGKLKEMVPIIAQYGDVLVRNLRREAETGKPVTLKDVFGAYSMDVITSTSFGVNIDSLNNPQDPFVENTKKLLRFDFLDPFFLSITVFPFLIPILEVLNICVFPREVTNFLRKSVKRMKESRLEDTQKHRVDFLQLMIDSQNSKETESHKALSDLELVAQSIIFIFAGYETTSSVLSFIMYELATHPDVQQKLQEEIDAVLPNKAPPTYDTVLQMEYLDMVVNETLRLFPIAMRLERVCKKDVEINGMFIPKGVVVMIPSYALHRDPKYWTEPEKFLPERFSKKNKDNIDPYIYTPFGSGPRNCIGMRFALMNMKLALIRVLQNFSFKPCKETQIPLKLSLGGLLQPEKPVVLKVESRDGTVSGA
Chain of CYP enzyme subtype 3A4M (P08684 whole entry): as above
Chain of CYP enzyme subtype 2C9 (P11712 whole entry): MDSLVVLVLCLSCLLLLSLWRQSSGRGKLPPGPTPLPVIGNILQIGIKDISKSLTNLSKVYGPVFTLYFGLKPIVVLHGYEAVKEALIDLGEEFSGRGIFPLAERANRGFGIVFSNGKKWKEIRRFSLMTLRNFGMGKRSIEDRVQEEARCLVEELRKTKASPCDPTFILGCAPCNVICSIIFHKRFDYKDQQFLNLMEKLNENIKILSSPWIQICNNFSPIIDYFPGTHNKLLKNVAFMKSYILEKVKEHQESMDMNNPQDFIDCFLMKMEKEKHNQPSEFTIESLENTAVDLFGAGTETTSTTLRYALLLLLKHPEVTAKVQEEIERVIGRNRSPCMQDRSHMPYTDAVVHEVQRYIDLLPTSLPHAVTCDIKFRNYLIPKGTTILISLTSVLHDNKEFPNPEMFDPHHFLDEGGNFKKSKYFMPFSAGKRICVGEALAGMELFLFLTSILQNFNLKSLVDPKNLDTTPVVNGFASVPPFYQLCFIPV
Chain of CYP enzyme subtype 2D6 (P10635 whole entry): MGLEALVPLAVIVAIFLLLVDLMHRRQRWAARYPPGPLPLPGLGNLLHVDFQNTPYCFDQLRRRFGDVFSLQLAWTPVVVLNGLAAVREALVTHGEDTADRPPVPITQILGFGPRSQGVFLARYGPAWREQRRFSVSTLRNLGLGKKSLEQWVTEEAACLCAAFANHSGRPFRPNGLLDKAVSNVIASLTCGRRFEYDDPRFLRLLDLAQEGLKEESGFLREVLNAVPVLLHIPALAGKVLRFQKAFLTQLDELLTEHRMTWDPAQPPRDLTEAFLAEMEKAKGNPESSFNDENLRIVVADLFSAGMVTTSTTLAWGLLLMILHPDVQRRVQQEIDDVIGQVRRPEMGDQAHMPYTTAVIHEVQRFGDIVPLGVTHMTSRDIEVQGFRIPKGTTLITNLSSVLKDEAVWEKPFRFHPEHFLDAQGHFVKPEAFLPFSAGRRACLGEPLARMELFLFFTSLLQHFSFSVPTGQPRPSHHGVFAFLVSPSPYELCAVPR

SMILES: CN(C/C=C/c1ccc(-c2ccccc2)cc1)Cc1coc2ccccc12 [Compound IA-25, (E)-N-methyl-N-[(benzofuran-3-yl)methylene]-3-(4-phenylphenyl)-prop-2-en-1-amine]
- colors in final photograph of inhibition of staphyloxanthin synthesis ([1]; 50, 10, 5, 2.5, 1.25, 0.625, 0.3125 and 0 μM from left to right): white to yellow from left to right gradually
- concentration at which staphyloxanthin synthesis is significantly inhibited ([1]; strain Newman, 24 h culture, lowest concentration tested): ≤ 0.3125 µM
- IC50 ([2]; Newman, Table 3, read-out: Inhibitory activity on staphyloxanthin IC50): 0.002 ± 0.0001 µM
- IC50 ([2]; S. aureus strain Newman, Table 1, read-out: IC50, inhibitory activity on staphyloxanthin synthesis): 0.002 ± 0.0001 µM
- HPLC absorption peaks of carotenoid extract [3]: absorption peaks at the original peak position disappeared again
- bacterial survival rate after hydrogen peroxide killing [4]: less than 5%
- bacterial survival rate after human blood killing [5]: less than 3%
- MIC80 [6]: > 64 µg/mL
- Viable colony counts in vivo [7]: 4.9 Log10CFU
- Viable colony counts in vivo [8]: 3.3 Log10CFU
- Viable colony counts in vivo [9]: 2.7 Log10CFU
- Viable colony counts in vivo [10]: 3.5 Log10CFU
- Viable colony counts in vivo [11]: 2.3 Log10CFU
- Viable colony counts in vivo [12]: 6.4 Log10CFU
- Viable colony counts in vivo [13]: 3.8 Log10CFU
- IC50 [14]: 5.69 µM
- IC50 [15]: > 10 µM
- IC50 [16]: > 10 µM
- IC50 [17]: 3.2 µM
- IC50 [18]: > 10 µM
- IC50 [19]: > 10 µM
- abnormality in the dissected organs [20]: there was not any abnormality in the dissected organs
- death or poor behavior events [20]: did not result in any death or poor behavior events in the rats

Reference: US10829464B2, “Benzoheterocyclic alkylamine compounds and use thereof” (priority 2016, dated 2020)
